{
  "source": "patent US6565897B2",
  "about": "“Extract of nerium species, pharmaceutical composition thereof and methods for preparation thereof” (Ozelle Pharmaceuticals, Inc., priority 1998, dated 2003)",
  "test_system": "Tumor Necrosis Factor (TNF)",
  "assay": "Tumor Necrosis Factor (TNF) production (immune stimulation)",
  "format": "cell-based",
  "details": "at a concentration of 50 mcg/mL",
  "excerpt": "For example, the polysaccharide PS-I is shown to produce 256 Unit/mL of Tumor Necrosis Factor (TNF) at a concentration of 50 mcg/mL while a mixture of PS-II, PS-III and PS-IV is shown to produce 1000 Unit/mL of TNF at a concentration of 3 mcg/mL.",
  "data": [
    {"substance": "Poly α (1→4) D-Galacturonic Acid [PS-I]", "values": [
      {"measurement": "Tumor Necrosis Factor (TNF) produced", "result": 256, "unit": "Unit/mL"}
    ]}
  ]
}
